{"source": "patent US11248016B2", "about": "“Glycolipids and pharmaceutical compositions thereof for use in therapy” (THE UNIVERSITY OF NOTTINGHAM, priority 2014, dated 2022)", "key": {"[1]": {"tested_on": "SKOV3 ovarian cancer cells", "assay": "Cell proliferation, SKOV3", "assay_type": "cell-based", "conditions": "96 hours, Cisplatin alone; FIG. 4f", "description": "Growth of SKOV3 cell lines were slowed by the treatment with a compound of Formula II at higher doses. Experiment represents 6 biological repetitions, Error=S.E.M.\nCisplatin™ resistant SKOV-3 ovarian cancer cells were sensitised to treatment with a compound of Formula II in combination with 2.5 μM Cisplatin™ (p=0.003) (right hand bar in the figure), no effect is observed from treatment with equivalent levels of a compound of Formula II alone (left hand bar in the figure) or Cisplatin™ alone.\n(§1) Prior to treatment cells were cultured to an appropriate confluency in 96 well tissue culture plates (Fisher). Cells remained either supplemented with fresh media or treated with fresh media containing active or an equivalent volume of DMSO (vehicle control). Where used, Cisplatin™ was diluted to a stock concentration in Dimethylformamide (DMF), then handled as per the manufacturer's instructions. To determine relative cell viability, reagents WST-1 (Roche) or MTT (Sigma) were used as per the manufacturer's instructions and absorbance at 450 nm measured using a Victor plate reader (Perkin Elmer)."}, "[2]": {"tested_on": "primary canine histocytic sarcoma tumour cells", "assay": "Primary canine tumour cell experiments", "assay_type": "cell-based, dog", "conditions": "single dose Cisplatin (10 μM), 6 days", "description": "Cells were cultured for 6 days with a single dose treatment of Cisplatin™ (10 μM) or a combination of Cisplatin™ plus a compound of Formula II (active). Images were taken after 6 days treatment and are representative of three independently treated wells. Each image (40× magnification) represents the majority of the well area and is of an equivalent area in each photograph.\nKnown inhibitors of protein synthesis such as hippuristanol have proven potent anti-cancer properties when used in combination with chemotherapeutic agents such as Cisplatin™ or Doxorubicin™. However hippuristanol is naturally found in coral to is scarce and expensive to obtain, furthermore it is very difficult and expensive to synthesise. […] In particular this combination has a potent effect at slowing proliferation or killing cancer cells. Slow growing and difficult to treat tumour cell types such as A549 lung cancer cells, SH-SY5Y neuroblastoma or SKOV-3 cancer cells are all sensitised by exposure to Formula II to very low doses of Cisplatin™ (FIGS. 4d, 4e, 4f and 7)—a complete kill can be achieved in both A549 and SH-SY5Y cells after a single dose treatment with g quantities of a compound of Formula II in combination with 1 μM or 2.5 μM treatments of Cisplatin™. […]"}, "NLGN1 5′UTR": {"tested_on": "NLGN1 5′UTR", "assay": "NLGN translation reporter assay, neuroligin 1", "assay_type": "cell-based, human", "conditions": "FIG. 5: 1 μM Hippuristanol, 1.3 μM compound; FIG. 10: compound 46", "description": "(§2) The mechanism of action and level of activity of Formula II are consistent with and comparative to a proven translational inhibitor extracted from a rare coral species (Hippuristanol—a proven inhibitor of eIf4A). In this experiment 1 μM of Hippuristanol and 1.3 μM of Formula I was used\n(§3) FIG. 10—Compound 46, NLGN Translation reporter assay.\nDirect evidence is provided that inhibiting eIF4A represents a new route to treating ASD based on the data presented by Gkogkas et al. Nature 2013, 493:371-7.\nTreatment with the compound of Formula II (and compound 46) (FIG. 5 and FIG. 10) selectively decrease the firefly luciferase signal from a reporter construct containing the NLGN1 5′UTR upstream of a firefly luciferase gene. The translation of luciferase reporters downstream of the NLGN1 5′UTR has been proven to be dependent on the activity of the translation initiation complex eIF4F (Gkogkas et al Nature 2013, 493:371-7)—a complex containing the helicase eIF4A. Equivalent treatment had little effect on the signal generated from either a co-transfected renilla luciferase reporter control or cells transfected with an equivalent construct containing the NLGN2 5′UTR upstream of a firefly luciferase gene (FIG. 5 and FIG. 10).\nExperiments conducted using Firefly luciferase reporter plasmids containing the 5′ untranslated regions (UTRs) of the genes amyloid precursor protein (APP), thioredoxin (TXN) were conducted with reagents and materials described by Bottley et al, 2010. Experiments conducted using Firefly luciferase reporter plasmids containing the 5′ UTRs of the genes EGFR, BACE1 and Actin were conducted with reagents and materials described by Webb, 2012 (http://etheses.nottingham.ac.uk/2724/). […]\n(§4) Cells were transfected using FuGene 6 (Roche) following the manufacturer's instructions. The activities of firefly and renilla luciferase in lysates prepared from transfected cells were measured using a commercially available Luciferase reporter assay system (Promega) and light emission was measured over a 10 sec interval using a TECAN luminometer. […]"}, "NLGN2 5′UTR": {"tested_on": "NLGN2 5′UTR", "assay": "NLGN translation reporter assay, neuroligin 2", "assay_type": "cell-based, human", "conditions": "equivalent treatment; FIG. 5 and FIG. 10", "description": "as §2, §3\nTreatment with the compound of Formula II (and compound 46) (FIG. 5 and FIG. 10) selectively decrease the firefly luciferase signal from a reporter construct containing the NLGN1 5′UTR upstream of a firefly luciferase gene. The translation of luciferase reporters downstream of the NLGN1 5′UTR has been proven to be dependent on the activity of the translation initiation complex eIF4F (Gkogkas et al Nature 2013, 493:371-7)—a complex containing the helicase eIF4A. […]\nas §4"}, "[3]": {"tested_on": "A549 lung carcinoma cells", "assay": "Cell proliferation, A549 (WST-1 / MTT)", "assay_type": "cell-based", "conditions": "for sensitisation of A549 cells to low dose cisplatin: range of doses with range of doses of Cisplatin, FIG. 14; for sensitisation of A549 cells to low dose cisplatin / growth of A549 cells: 96 hrs; for growth of A549 cells: range of doses, dose dependant manner, FIG. 13", "description": "Cisplatin™ resistant A549 lung cancer cells were sensitised to treatment with a compound of Formula II in combination with 1 μM Cisplatin™—a complete kill is achieved at higher doses of a compound of Formula II.\nCells were treated with a range of doses of active for either 48 or 96 hrs. Each data point is representaive of at least 4 biological repetitions.\nCells were treated with either 2 μM Cisplatin™ alone, c. 1 μg active alone or c. 1 μg active in combination with 2 μM Cisplatin™. A WST-1 cell proliferation assay was performed 96 hrs after treatment. Experiment represents 4 independent biological repetitions.\nA WST-1 cell proliferation assay was performed 72 hrs after treatment. Experiment represents 4 independent biological repetitions.\nCells were treated with either 2 μM or 10 μM Cisplatin™ alone, or 10 μg synthetic molecule Formula II in combination with 2 μM Cisplatin™. A WST-1 cell proliferation assay was performed 72 hrs after treatment. Experiment represents 4 independent biological repetitions. A 5-fold increase in the efficacy of Cisplatin™ is observed when treated in combination with the synthetic Formula II.\nCells were treated with either 2 μM, 5 μM or 10 μM Cisplatin™ alone, 50 μg synthetic acetyl derivative molecule or 30 μg in combination with 2 μM Cisplatin™. A WST-1 cell proliferation assay was performed 72 hrs after treatment. Experiment represents four independent biological repetitions. No effect was detected after treatment with 50 μg synthetic acetyl derivative, however an 8-fold increase in the efficacy of Cisplatin™ is observed when treated in combination with 30 μg synthetic acetyl derivative and […] Cisplatin™.\nFIG. 11—Natural molecule plus cisplatin compared to Hippuristanol plus cisplatin. […] The ratio between anti-proliferative activity to chemo sensitizing activity is also equivalent.\nFIG. 13—Dose curves of compounds 46, 99 and 123. […] Cells were treated with a range of doses of active for 96 hrs. Each data point is representative of at least 4 biological repetitions and error=s.e.m).\nFIG. 14—Cisplatin™ combination experiments—Compounds 46, 99 and 123. […] Cells were treated with a range of doses of active in combination with a range of doses of Cisplatin™ for 96 hrs. Each data point is representative of at least 4 biological repetitions and error=s.e.m).\nas §1"}, "three Gag isoforms": {"tested_on": "three Gag isoforms", "conditions": "increasing amounts, dose-response; cited from earlier work"}, "[4]": {"tested_on": "firefly luciferase translation reporter", "assay": "Firefly luciferase translation reporter assay", "assay_type": "cell-based, human", "conditions": "Hippuristanol (1 μM) alone, 4 hrs; FIG. 3c", "excerpt": "Graphs represent 4 biological repetitions per treatment—2 independent treatments of a compound of Formula II.\nGraphs represent 4 biological repetitions per treatment. […] No difference is observed between Hippuristanol and Hippuristanol plus a compound of Formula II.\nThe degree of translation inhibition is shown to be equivalent to that of a known inhibitor of translation, hippuristanol (FIGS. 3b and 5). Comparative structured 5′UTR firefly luciferase reporter experiments conducted using either hippuristanol or a compound of Formula II show the inhibition of reporter levels is equivalent.\nCells were transfected using FuGene 6 (Roche) following the manufacturer's instructions. The activities of firefly and renilla luciferase in lysates prepared from transfected cells were measured using a commercially available Luciferase reporter assay system (Promega) and light emission was measured over a 10 sec interval using a TECAN luminometer. For each experiment described, data was obtained from a minimum of at least 3 biological repetitions per treatment."}, "HCMV": {"tested_on": "HCMV", "conditions": "cited from earlier work"}}, "data": [{"smiles": "N.N.[Cl][Pt][Cl]", "note": "[Cisplatin, cis-diamminedichloroplatinum(II), reference compound]", "values": [{"measurement": "effect on SKOV-3 cells, Cisplatin alone", "setting": "[1]", "result": "no effect"}, {"measurement": "canine tumour cells after Cisplatin only", "setting": "[2]", "result": "many cancer cells remain"}]}, {"smiles": "CC/C=C\\C/C=C\\C/C=C\\CCCCCCCC(=O)OCC(COC(=O)CCCCCCC/C=C\\C/C=C\\C/C=C\\CC)CO[C@@H]1O[C@H](CO)[C@H](O)[C@H](O)[C@H]1O", "note": "[Compound 46]", "values": [{"measurement": "translation of NLGN1 5′UTR firefly luciferase reporter relative to neuroligin 2", "setting": "NLGN1 5′UTR", "result": "selectively inhibits the translation"}, {"measurement": "signal of NLGN2 5′UTR firefly luciferase reporter", "setting": "NLGN2 5′UTR", "result": "little effect"}, {"measurement": "sensitisation of A549 cells to low dose cisplatin", "setting": "[3]", "result": "sensitizes"}, {"measurement": "growth of A549 cells", "setting": "[3]", "result": "inhibits the growth"}]}, {"smiles": "CC/C=C\\C/C=C\\C/C=C\\CCCCCCCC(=O)OCC(COC(=O)CCCCCCC/C=C\\C/C=C\\C/C=C\\CC)CO[C@@H]1O[C@H](CO)[C@@H](O)[C@H](O)[C@H]1O", "note": "[Compound 99]", "values": [{"measurement": "sensitisation of A549 cells to low dose cisplatin", "setting": "[3]", "result": "sensitizes"}, {"measurement": "growth of A549 cells", "setting": "[3]", "result": "inhibits the growth"}]}, {"smiles": "CC/C=C\\C/C=C\\C/C=C\\CCCCCCCC(=O)OC[C@H](CO[C@H]1O[C@H](CO)[C@@H](O)[C@H](O)[C@H]1O)OC(=O)CCCCCCC/C=C\\C/C=C\\C/C=C\\CC", "note": "[Compound 123]", "values": [{"measurement": "sensitisation of A549 cells to low dose cisplatin", "setting": "[3]", "result": "sensitizes"}, {"measurement": "growth of A549 cells", "setting": "[3]", "result": "inhibits the growth"}]}, {"smiles": "C[C@H]1C[C@@]2(O[C@H]3C[C@H]4[C@@H]5CC[C@H]6C[C@H](O)CC[C@]6(C)[C@H]5[C@@H](O)C[C@]4(C)[C@H]3[C@@]2(C)O)OC1(C)C", "note": "[Hippuristanol, reference compound]", "values": [{"measurement": "translation of NLGN1 5′UTR firefly luciferase reporter relative to neuroligin 2", "setting": "NLGN1 5′UTR", "result": "selective inhibition"}, {"measurement": "translation of the three Gag isoforms", "setting": "three Gag isoforms", "result": "inhibits the translation of the three Gag isoforms"}, {"measurement": "anti-proliferative activity on A549 cells", "setting": "[3]; alone, FIG. 11", "result": "anti-proliferative"}, {"measurement": "inhibition of translation reporter", "setting": "[4]", "result": "significant inhibition"}]}, {"smiles": "CC(/C=C/C(C)=C/[C@@H]1Cc2nc(cs2)[C@@H](C)C[C@@H](N)CC(=O)O[C@@H](C)C/C(C)=C/C=C\\C(=O)O1)=C\\CN(C)C", "note": "[Pateamine A]", "values": [{"measurement": "replication of HCMV", "setting": "HCMV", "result": "inhibits the replication of HCMV"}]}, {"smiles": "CC/C=C\\C/C=C\\C/C=C\\CCCCCCCC(=O)OC[C@H](COC1OC(COC(C)=O)C(OC(C)=O)C(OC(C)=O)C1OC(C)=O)OC(=O)CCCCCCC/C=C\\C/C=C\\C/C=C\\CC", "note": "(some centres unmarked) [acetyl derivative of Formula II]", "values": [{"measurement": "increase in the efficacy of Cisplatin", "setting": "[3]; 30 μg plus 2 μM Cisplatin, WST-1, 72 hrs, FIG. 9c", "result": 8, "unit": "fold"}, {"measurement": "effect on A549 cells, compound alone", "setting": "[3]; 50 μg alone, WST-1, 72 hrs, FIG. 9c", "result": "No effect"}]}]}
